The source made the active and inactive calls. No rule for the calls is given here.

In this data set the test system is CCRIS mutagenicity, Ames/micronucleus/aberration tests. As to the kind of experiment: CCRIS mutagenicity studies.
Where [1] appears, read: Test System: AMES SALMONELLA TYPHIMURIUM, Strain/Indicator: TA97, Metabolic Activation: HAMSTER, LIVER, S-9, AROCLOR 1254 (10%), Method: PREINCUBATION
Where [2] appears, read: Test System: AMES SALMONELLA TYPHIMURIUM, Strain/Indicator: TA97, Metabolic Activation: NONE, Method: PREINCUBATION
Where [3] appears, read: Test System: AMES SALMONELLA TYPHIMURIUM, Strain/Indicator: TA97, Metabolic Activation: RAT, LIVER, S-9, AROCLOR 1254 (10%), Method: PREINCUBATION
The mark [4] stands for this setting: Test System: AMES SALMONELLA TYPHIMURIUM, Strain/Indicator: TA98, Metabolic Activation: HAMSTER, LIVER, S-9, AROCLOR 1254 (10%), Method: PREINCUBATION
[5] abbreviates: Test System: AMES SALMONELLA TYPHIMURIUM, Strain/Indicator: TA98, Metabolic Activation: NONE, Method: PREINCUBATION
Setting [6] is: Test System: AMES SALMONELLA TYPHIMURIUM, Strain/Indicator: TA98, Metabolic Activation: RAT, LIVER, S-9, AROCLOR 1254 (10%), Method: PREINCUBATION
[7] abbreviates: Test System: AMES SALMONELLA TYPHIMURIUM, Strain/Indicator: TA100, Metabolic Activation: HAMSTER, LIVER, S-9, AROCLOR 1254 (10%), Method: PREINCUBATION
Setting [8] is: Test System: AMES SALMONELLA TYPHIMURIUM, Strain/Indicator: TA100, Metabolic Activation: NONE, Method: PREINCUBATION
Where [9] appears, read: Test System: AMES SALMONELLA TYPHIMURIUM, Strain/Indicator: TA100, Metabolic Activation: RAT, LIVER, S-9, AROCLOR 1254 (10%), Method: PREINCUBATION
Setting [10] is: Test System: AMES SALMONELLA TYPHIMURIUM, Strain/Indicator: TA1535, Metabolic Activation: HAMSTER, LIVER, S-9, AROCLOR 1254 (10%), Method: PREINCUBATION
Where [11] appears, read: Test System: AMES SALMONELLA TYPHIMURIUM, Strain/Indicator: TA1535, Metabolic Activation: NONE, Method: PREINCUBATION
Setting [12] is: Test System: AMES SALMONELLA TYPHIMURIUM, Strain/Indicator: TA1535, Metabolic Activation: RAT, LIVER, S-9, AROCLOR 1254 (10%), Method: PREINCUBATION
Setting [13] is: Test System: AMES SALMONELLA TYPHIMURIUM, Strain/Indicator: TA100, Metabolic Activation: NONE, Method: STANDARD PLATE.

With `O=C(OCC1CO1)c1cccc(C(=O)OCC2CO2)c1` (stereo not drawn), the mutagenic call by setting is: under setting [1], “inactive; negative”; under setting [2], “active; positive”; under setting [3], “inactive; negative”; under setting [4], “inactive; negative”; under setting [5], “inactive; negative”; under setting [6], “inactive; negative”. Further, the mutagenic call runs as follows: under setting [7], “active; positive”; under setting [8], “active; positive”; under setting [9], “active; positive”; under setting [10], “active; positive”; under setting [11], “active; positive”; under setting [12], “active; positive”.
On to `[O]=[V](=[O])[OH]`, for which the mutagenic call by setting is: (Test System: AMES SALMONELLA TYPHIMURIUM, Strain/Indicator: TA100, Metabolic Activation: NONE, Method: FLUCTUATION TEST) “active; positive”; (Test System: AMES SALMONELLA TYPHIMURIUM, Strain/Indicator: TA1535, Metabolic Activation: NONE, Method: STANDARD PLATE (PH 7.8, MEDIUM WITH TRIMETAPHOSPHATE IONS)) “active; positive”; (Test System: CHINESE HAMSTER G12, Strain/Indicator: G12/6-THIOGUANINE, Metabolic Activation: NONE) “active; positive”; (Test System: CHINESE HAMSTER V-79, Strain/Indicator: V-79/6-THIOGUANINE, Metabolic Activation: MOUSE, LIVER, S-9) “inactive; negative”; (Test System: E. COLI, Strain/Indicator: WP2 UVRA, Metabolic Activation: NONE, Method: SPOT TEST) “inactive; negative”.
Consider `ClCc1cc2cc3ccccc3c3ccc4cccc1c4c23`, for which the mutagenic call is “active; positive” (Test System: AMES SALMONELLA TYPHIMURIUM, Strain/Indicator: TA98, Metabolic Activation: NONE, Method: STANDARD PLATE) and “active; positive” under setting [13].
With `Cc1ccc2nc3c(c4c(c5ccccc53)O4)c(C)c2c1`, the mutagenic call under setting [13] was “active; positive” and the mutagenic call (Test System: AMES SALMONELLA TYPHIMURIUM, Strain/Indicator: TA100, Metabolic Activation: RAT, LIVER, S-9, AROCLOR 1254, Method: STANDARD PLATE) is “inactive; negative”.
Take `CCN(CC)CCCNc1ccc2nc(C)n3c4ccc(O)cc4c(=O)c1c23`: the mutagenic call (Test System: CHINESE HAMSTER V-79, Strain/Indicator: V-79 (HGPRT)/6-THIOGUANINE, Metabolic Activation: NONE) was “active; positive”.
As to `N#C/C(N)=C(/N)C#N`, the mutagenic call was “inactive; negative” under setting [1]; “inactive; negative” (Test System: AMES SALMONELLA TYPHIMURIUM, Strain/Indicator: TA97, Metabolic Activation: HAMSTER, LIVER, S-9, AROCLOR 1254 (30%), Method: PREINCUBATION); “inactive; negative” under setting [2]; “inactive; negative” under setting [3]; “inactive; negative” (Test System: AMES SALMONELLA TYPHIMURIUM, Strain/Indicator: TA97, Metabolic Activation: RAT, LIVER, S-9, AROCLOR 1254 (30%), Method: PREINCUBATION); “inactive; negative” under setting [4]. Also, the mutagenic call (Test System: AMES SALMONELLA TYPHIMURIUM, Strain/Indicator: TA98, Metabolic Activation: HAMSTER, LIVER, S-9, AROCLOR 1254 (30%), Method: PREINCUBATION) was “inactive; negative”; the mutagenic call under setting [5] is “inactive; negative”; the mutagenic call under setting [6] was “inactive; negative”; the mutagenic call (Test System: AMES SALMONELLA TYPHIMURIUM, Strain/Indicator: TA98, Metabolic Activation: RAT, LIVER, S-9, AROCLOR 1254 (30%), Method: PREINCUBATION) is “inactive; negative”; the mutagenic call under setting [7] is “inactive; negative”; the mutagenic call (Test System: AMES SALMONELLA TYPHIMURIUM, Strain/Indicator: TA100, Metabolic Activation: HAMSTER, LIVER, S-9, AROCLOR 1254 (30%), Method: PREINCUBATION) was “inactive; negative”. The mutagenic call is “inactive; negative” under setting [8]; “inactive; negative” under setting [9]; “inactive; negative” (Test System: AMES SALMONELLA TYPHIMURIUM, Strain/Indicator: TA100, Metabolic Activation: RAT, LIVER, S-9, AROCLOR 1254 (30%), Method: PREINCUBATION); “inactive; negative” under setting [10]; “inactive; negative” (Test System: AMES SALMONELLA TYPHIMURIUM, Strain/Indicator: TA1535, Metabolic Activation: HAMSTER, LIVER, S-9, AROCLOR 1254 (30%), Method: PREINCUBATION); “inactive; negative” under setting [11]. The mutagenic call is, setting by setting: under setting [12], “inactive; negative”; (Test System: AMES SALMONELLA TYPHIMURIUM, Strain/Indicator: TA1535, Metabolic Activation: RAT, LIVER, S-9, AROCLOR 1254 (30%), Method: PREINCUBATION) “inactive; negative”; (Test System: MOUSE LYMPHOMA, Strain/Indicator: L5178Y (TK+/TK-), Metabolic Activation: NONE, Method: SUSPENSION/PLATE) “active; positive. reevaluation of results: positive”; (Test System: MOUSE LYMPHOMA, Strain/Indicator: L5178Y (TK+/TK-), Metabolic Activation: RAT, LIVER, S-9, AROCLOR 1254, Method: SUSPENSION/PLATE) “active; positive. reevaluation of results: positive”.
In the case of `FC(F)(F)C(Cl)Br` (stereo not drawn), the mutagenic call is “inactive; negative” (End Point: IN VITRO CHROMOSOMAL ABERRATIONS, Test System: CHINESE HAMSTER OVARY CELLS, Metabolic Activation: NONE); “inactive; negative” (End Point: IN VITRO CHROMOSOMAL ABERRATIONS, Test System: CHINESE HAMSTER OVARY CELLS, Metabolic Activation: RAT, LIVER, S-9, AROCLOR 1254); “inactive; negative” under setting [4]; “inactive; negative” under setting [5]; “inactive; negative” under setting [6]; “inactive; negative” under setting [7]. The mutagenic call is, setting by setting: under setting [8], “inactive; negative”; under setting [9], “inactive; negative”; under setting [10], “inactive; negative”; under setting [11], “inactive; negative”; under setting [12], “inactive; negative”; (Test System: AMES SALMONELLA TYPHIMURIUM, Strain/Indicator: TA1537, Metabolic Activation: HAMSTER, LIVER, S-9, AROCLOR 1254 (10%), Method: PREINCUBATION) “inactive; negative”. Further, the mutagenic call by setting is: (Test System: AMES SALMONELLA TYPHIMURIUM, Strain/Indicator: TA1537, Metabolic Activation: NONE, Method: PREINCUBATION) “inactive; negative”; (Test System: AMES SALMONELLA TYPHIMURIUM, Strain/Indicator: TA1537, Metabolic Activation: RAT, LIVER, S-9, AROCLOR 1254 (10%), Method: PREINCUBATION) “inactive; negative”.
`OC[C@@H](O)[C@@H](O)[C@H](O)[C@@H](O)CO`: the mutagenic call reads like this: (End Point: IN VITRO CHROMOSOMAL ABERRATIONS, Test System: CHO-WBL CELLS, Metabolic Activation: NONE) “active; positive (structural changes); osmolality of solution decisive factor”; (Test System: AMES SALMONELLA TYPHIMURIUM, Strain/Indicator: TA97A, Metabolic Activation: NONE, Method: PREINCUBATION) “inactive; negative”; (Test System: AMES SALMONELLA TYPHIMURIUM, Strain/Indicator: TA97A, Metabolic Activation: RAT, LIVER, S-9, AROCLOR 1254, Method: PREINCUBATION) “inactive; negative”; (Test System: AMES SALMONELLA TYPHIMURIUM, Strain/Indicator: TA102, Metabolic Activation: NONE, Method: PREINCUBATION) “inactive; negative”; (Test System: AMES SALMONELLA TYPHIMURIUM, Strain/Indicator: TA102, Metabolic Activation: RAT, LIVER, S-9, AROCLOR 1254, Method: PREINCUBATION) “inactive; negative”.

Values taken from PubChem BioAssay AID1259407 (Chemical Carcinogenesis Research Information System (CCRIS), 2018).
